Here are results for 19 compounds from US20240092784A1, “CONDENSED HETEROCYCLIC COMPOUND” (NISSAN CHEMICAL CORPORATION, priority 2020, published 2024).

human SPR, sequence (P35270 whole entry): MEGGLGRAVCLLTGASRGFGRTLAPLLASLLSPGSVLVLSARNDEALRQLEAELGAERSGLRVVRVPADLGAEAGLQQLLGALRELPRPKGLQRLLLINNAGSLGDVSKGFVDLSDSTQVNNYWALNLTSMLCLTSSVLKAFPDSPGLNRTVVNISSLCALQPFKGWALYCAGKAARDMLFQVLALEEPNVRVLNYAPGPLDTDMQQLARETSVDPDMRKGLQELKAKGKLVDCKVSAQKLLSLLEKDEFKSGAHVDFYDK

In the first test the target is human SPR (Homo sapiens (Human), UniProt P35270). Briefly: Evaluation Example 2: Measurement of human SPR inhibitory activity (seven concentrations, sepiapterin absorbance at 420 nm). The note with it: Evaluation Example 2, seven concentrations 0.14 nM to 100 nM, 240 minutes at room temperature, read-out: IC50. The format is biochemical. As for the experimental part:
Human SPR was prepared as described below. The full-length human SPR (1-261) cDNA was purchased from Eurofins Genomics as an artificially synthesized plasmid containing a DNA sequence optimized for the E. coli expression system so that the sequence of the expressed protein after transcription and translation matches the sequence described in UniprotKB (P35270).
Linearized insert and vector were prepared by PCR using primers designed for amplification of human SPR cDNA and primers designed to contain the thrombin recognition sequence of pET28a (Novagen) and a polyhistidine tag. Cloning was performed using In-Fusion (registered trademark) HD Cloning Kit (TaKaRa) to thereby construct a human SPR expression plasmid. The resultant human SPR expression plasmid was transformed into BL21 (DE3) competent cells (INVITROGEN).
The cells were inoculated into LB medium (1% triptone, 0.5% yeast extract, 1% sodium chloride) containing […] of kanamycin, and then precultured at 37° C. overnight. The precultured cells were inoculated into TB medium (1.2% triptone, 2.4% yeast extract, 9.4% dipotassium hydrogen phosphate, 2.2% potassium dihydrogen phosphate, 0.8% glycerin) containing […] of kanamycin, and the cultured at 37° C., to thereby induce SPR expression with 0.5 mM IPTG for four hours. After the induction, the cells were collected by centrifugation at 6,000 G for 30 minutes and washed with PBS, and the washing was discarded. The washed cells were suspended in buffer solution A (20 mM MES, pH 6.5, 100 mM sodium chloride, 1 mM DTT, 5 mM imidazole). Subsequently, the cell suspension was subjected to ultrasonic treatment to thereby homogenize the cells. The cell homogenate was clarified by centrifugation at 30,000 G for 60 minutes and then filtered with a […]. The filtrate was allowed to pass through HisTrapFF 5 mL column (GE Healthcare). The resin was washed with buffer A, and then gradient elution was performed with buffer B (20 mM MES, pH 6.5, 100 mM sodium chloride, 1 mM DTT, 500 mM imidazole). Thrombin was added to a fraction containing the SPR protein, and the mixture was dialyzed in buffer A overnight, to thereby cleave the tag. After removal of the thrombin by with Benzamidine Sepharose 4 FF (GE Healthcare), the resultant product was allowed to pass through the HisTrapFF 5 mL column, to thereby remove the tag, followed by concentration with Amicon Ultra 10,000 NMWL (Merck Millipore). The concentrate was purified by gel filtration using HiLoad 16/60 Superdex 75 pg (GE Healthcare) equilibrated with buffer C (20 mM MES, pH 6.5, 100 mM sodium chloride, 1 mM DTT). The fraction containing SPR protein was concentrated and then cryopreserved at −80° C.
Human SPR inhibitory activity was measured by using a 384-well low adsorption clear plate (Greiner) with buffer D containing 100 mM Tris-HCl (pH 7.5) (Thermo Fisher Scientific) and 0.01% bovine serum albumin (Sigma). A compound was diluted with DMSO to achieve seven different final concentrations; i.e., 0.14 nM, 0.41 nM, 1.23 nM, 3.7 nM, 11.1 nM, 33 nM, and 100 nM. A 1.5 μL aliquot of the compound solution prepared with DMSO was diluted with 250 μL of buffer D, and the thus-diluted solution was dispensed into the 384-well plate at 20 μL/well. Thereafter, human SPR was diluted with buffer D to 150 ng/mL and then dispensed into the 384-well plate at 20 μL/well. Subsequently, 40 μL of ultrapure water containing 120 μM sepiapterin (produced by the method described in L-Sepiapterin, Heterocycles, 2008, 76, 1329-1335 and WO 2013/168693) and 160 μM NADPH (Nacalai) was added to each well, and then reaction was initiated. The reaction mixture was incubated at room temperature for 240 minutes. Thereafter, in order to determine the amount of sepiapterin, the absorbance at 420 nm was measured by applying the 384-well plate to EnSpire multimode plate reader (Perkin Elmer). The percent inhibition (%) of human SPR by the test compound was calculated by the following formula.
Consider `CC(C)Cn1c(=O)c(C(=O)NC2CC2)c(O)n2ncc(CCc3ccc(C(F)(F)F)nc3)c12` [Synthesis Example 251, N-Cyclopropyl-7-hydroxy-4-isobutyl-5-oxo-3-(2-(6-(trifluoromethyl)pyridin-3-yl)ethyl)-4,5-dihydropyrazolo[1,5-a]pyrimidine-6-carboxamide], for which the IC50 was 1.74 nM.
On the same count and under the same terms, the figure for `CC(C)Cn1c(=O)c(C(=O)NC2CC2)c(O)n2ncc(/C=C/C(=O)N3CC4C(C3)C4(F)F)c12` (stereo not shown) [compound 511, (E)-N-Cyclopropyl-3-(3-(6,6-difluoro-3-azabicyclo[3.1.0]hexan-3-yl)-3-oxoprop-1-en-1-yl)-7-hydroxy-4-isobutyl-5-oxo-4,5-dihydropyrazolo[1,5-a]pyrimidine-6-carboxamide] is 1.07 nM; for `CNc1nn2c(O)c(C(=O)NC3CC3)c(=O)n(CC(C)C)c2c1/C=C/C(=O)N1CCOC[C@@H]1C` [Synthesis Example 430, (S,E)-N-Cyclopropyl-7-hydroxy-4-isobutyl-2-(methylamino)-3-(3-(3-methylmorpholino)-3-oxoprop-1-en-1-yl)-5-oxo-4,5-dihydropyrazolo[1,5-a]pyrimidine-6-carboxamide] it is 0.92 nM.
Still for that read-out and setting: the figure for `CC(C)(C)Cn1c(=O)c(C(=O)NC2CC2)c(O)n2nc3c(c12)CCN3CC(F)(F)F` [Synthesis Example 398, N-Cyclopropyl-7-hydroxy-4-neopentyl-5-oxo-1-(2,2,2-trifluoroethyl)-2,3,4,5-tetrahydro-1H-pyrrolo[2′,3′:3,4]pyrazolo[1,5-a]pyrimidine-6-carboxamide] is 6.08 nM.
With `CC(C)Cn1c(=O)c(C(=O)NC2CC2)c(O)n2ncc(/C=C/c3ccc(C(F)(F)F)nc3)c12` [Synthesis Example 248, (E)-N-Cyclopropyl-7-hydroxy-4-isobutyl-5-oxo-3-(2-(6-(trifluoromethyl)pyridine-3-yl)vinyl)-4,5-dihydropyrazolo[1,5-a]pyrimidine-6-carboxamide], the IC50 came to 1.89 nM.
The same measure, in the same setting: the figure for `CC(C)Cn1c(=O)c(C(=O)NCC(F)(F)F)c(O)n2nc(Br)cc12` [Synthesis Example 273, 2-Bromo-7-hydroxy-4-isobutyl-5-oxo-N-(2,2,2-trifluoroethyl)-4,5-dihydropyrazolo[1,5-a]pyrimidine-6-carboxamide] is 11.6 nM.
In the case of `CC(C)Cn1c(=O)c(C(=O)NC2CC2)c(O)n2ncc(/C=C/C(=O)N3CC[C@@H](F)C3)c12` [compound 481, (R,E)-N-Cyclopropyl-3-(3-(3-fluoropyrrolidin-1-yl)-3-oxoprop-1-en-1-yl)-7-hydroxy-4-isobutyl-5-oxo-4,5-dihydropyrazolo[1,5-a]pyrimidine-6-carboxamide], the IC50 is 0.75 nM.
Still for that read-out and setting: the same measure for `CNc1ccncc1-c1cc2n(CC(C)(C)C)c(=O)c(C(=O)NC3CC3)c(O)n2n1` [Synthesis Example 308, N-Cyclopropyl-7-hydroxy-2-(4-(methylamino)pyridin-3-yl)-4-neopentyl-5-oxo-4,5-dihydropyrazolo[1,5-a]pyrimidine-6-carboxamide]: 3.6 nM; for `CC[C@H]1COCCN1C(=O)/C=C/c1cnn2c(O)c(C(=O)NC3CC3)c(=O)n(CC(C)C)c12` [compound 544, (S,E)-N-Cyclopropyl-3-(3-(3-ethylmorpholino)-3-oxoprop-1-en-1-yl)-7-hydroxy-4-isobutyl-5-oxo-4,5-dihydropyrazolo[1,5-a]pyrimidine-6-carboxamide]: 0.95 nM; for `CC(C)Cn1c(=O)c(C(=O)NC2CC2)c(O)n2ncc(/C=C/C(=O)N3CC[C@H](C#N)C3)c12` [compound 482, (S,E)-3-(3-(3-Cyanopyrrolidin-1-yl)-3-oxoprop-1-en-1-yl)-N-cyclopropyl-7-hydroxy-4-isobutyl-5-oxo-4,5-dihydropyrazolo[1,5-a]pyrimidine-6-carboxamide]: 0.71 nM.
As to `CC(C)(C)Cn1c(=O)c(C(=O)NC2CC2)c(O)n2nc(Nc3cnc(C(=O)N4CCC(C#N)CC4)cn3)cc12` [Synthesis Example 359, 2-((5-(4-Cyanopiperidine-1-carbonyl)pyrazin-2-yl)amino)-N-cyclopropyl-7-hydroxy-4-neopentyl-5-oxo-4,5-dihydropyrazolo[1,5-a]pyrimidine-6-carboxamide], the IC50 came out at 0.88 nM.
With `CC(C)Cn1c(=O)c(C(=O)NC2CC2)c(O)n2ncc(/C=C/C(=O)N3CCC(F)(F)CC3)c12` [compound 464, (E)-N-Cyclopropyl-3-(3-(4,4-difluoropiperidin-1-yl)-3-oxoprop-1-en-1-yl)-7-hydroxy-4-isobutyl-5-oxo-4,5-dihydropyrazolo[1,5-a]pyrimidine-6-carboxamide], the IC50 was 0.8 nM.
Take `CC(C)Cn1c(=O)c(C(=O)NC2CC2)c(O)n2ncc(/C=C/C(=O)N3CCC(C#N)CC3)c12` [compound 468]: the IC50 is 0.84 nM.
Consider `Cc1nn2c(O)c(C(=O)NC3CC3)c(=O)n(CC(C)C)c2c1/C=C/C(=O)N1CC2CCC(C1)O2` [compound 569, (E)-3-(3-(8-Oxa-3-azabicyclo[3.2.1]octan-3-yl)-3-oxoprop-1-en-1-yl)-N-cyclopropyl-7-hydroxy-4-isobutyl-2-methyl-5-oxo-4,5-dihydropyrazolo[1,5-a]pyrimidine-6-carboxamide], for which the IC50 amounted to 0.67 nM.
Same read-out and setting: the same measure for `COC[C@H]1COCCN1C(=O)/C=C/c1cnn2c(O)c(C(=O)NC3CC3)c(=O)n(CC3(F)CC3)c12` [Synthesis Example 382, (S,E)-N-cyclopropyl-4-((1-fluorocyclopropyl)methyl)-7-hydroxy-3-(3-(3-(methoxymethyl)morpholino)-3-oxoprop-1-en-1-yl)-5-oxo-4,5-dihydropyrazolo[1,5-a]pyrimidine-6-carboxamide]: 0.87 nM; for `C/C(=C\c1cnn2c(O)c(C(=O)NC3CC3)c(=O)n(CC(C)C)c12)C(=O)NC(C)C` [Synthesis Example 257, (E)-N-Cyclopropyl-7-hydroxy-4-isobutyl-3-(3-(isopropylamino)-2-methyl-3-oxoprop-1-en-1-yl)-5-oxo-4,5-dihydropyrazolo[1,5-a]pyrimidine-6-carboxamide]: 1.01 nM.
Regarding `Cc1nn2c(O)c(C(=O)NC3CC3)c(=O)n(CC(C)C)c2c1/C=C/C(=O)N(C)Cc1ccn(C)n1` [Synthesis Example 639, (E)-N-Cyclopropyl-7-hydroxy-4-isobutyl-2-methyl-3-(3-(methyl((1-methyl-1H-pyrazol-3-yl)methyl)amino)-3-oxoprop-1-en-1-yl)-5-oxo-4,5-dihydropyrazolo[1,5-a]pyrimidine-6-carboxamide], the IC50 was determined as 1.06 nM.

The test is the same for the next values; noted with them: sepiapterin absorbance, Table 41, read-out: concentration at 50% inhibition of human SPR (IC50).
As for `CC(C)Cn1c(=O)c(C(=O)NC2CC2)c(O)n2ncc(/C=C/C(=O)N3CCc4ccncc43)c12` [Synthesis Example 742, (E)-N-Cyclopropyl-3-(3-(2,3-dihydro-1H-pyrrolo[2,3-c]pyridin-1-yl)-3-oxoprop-1-en-1-yl)-7-hydroxy-4-isobutyl-5-oxo-4,5-dihydropyrazolo[1,5-a]pyrimidine-6-carboxamide], the IC50 came to 1.59 nM.
On to `CC(C)Cn1c(=O)c(C(=O)NC2CC2)c(O)n2ncc(/C=C/C(=O)N3CCOc4ccncc43)c12` [Synthesis Example 738, (E)-N-Cyclopropyl-3-(3-(2,3-dihydro-4H-pyrido[4,3-b][1,4]oxazin-4-yl)-3-oxoprop-1-en-1-yl)-7-hydroxy-4-isobutyl-5-oxo-4,5-dihydropyrazolo[1,5-a]pyrimidine-6-carboxamide], for which the IC50 came to 1.39 nM.
